The experiment addresses T1, CCR2 (Homo sapiens, UniProt P41597).
T1 sequence (P41597 1-360 isoform P41597-2): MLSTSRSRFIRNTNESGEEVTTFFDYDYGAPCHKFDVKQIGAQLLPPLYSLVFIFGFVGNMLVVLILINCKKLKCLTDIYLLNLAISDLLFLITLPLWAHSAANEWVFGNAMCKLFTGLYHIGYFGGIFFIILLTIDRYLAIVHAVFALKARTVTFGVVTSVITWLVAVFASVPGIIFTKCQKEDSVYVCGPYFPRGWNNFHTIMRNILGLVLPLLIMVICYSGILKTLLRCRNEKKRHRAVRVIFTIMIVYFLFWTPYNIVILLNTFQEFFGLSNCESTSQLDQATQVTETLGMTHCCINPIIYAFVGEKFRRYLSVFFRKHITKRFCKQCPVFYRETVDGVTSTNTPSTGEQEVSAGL
Briefly: Binding assay: inhibition of 125I-MCP-1 binding to THP-1 cells. Also on record: CCR2 is also expressed in the human monocytic cell line THP-1; endogenous in cells; host or cells: THP-1 (human monocytic cell line), whole cells. As to conditions: THP-1 cells, 0.1 nM 125I-MCP-1, 1 hr at room temperature; read-out: Inhibition of 125I-MCP-1 binding to THP-1 cells, IC50. Here is the method: Antagonism of the CCR2 receptor is determined by a binding assay using the human monocytic cell line THP-1. Cells are suspended in assay buffer (RPMI+1% BSA+25 mM HEPES) at 3×10^6 cells/ml and an aliquot (180 μl) added to a 0.5 ml siliconized Eppendorf tube. […] After incubation for 1 hr at room temperature, the cell suspension is centrifuged through oil and the cell pellets counted to quantitate cell-bound ligand. Nonspecific (NS) binding of radioligand is determined by the addition of 100 nM cold MCP-1. Control binding is determined by the addition of buffer without compound.

Molecules are shown by their SMILES.

Usually IC50 stands for the midpoint of a concentration-inhibition curve.

With `CC(=O)C1=C(O)C(=O)N(c2ccc(F)cc2F)C1C1CCCCC1` (racemic) [Compound 62, 4-acetyl-5-cyclohexyl-1-(2,4-difluorophenyl)-3-hydroxy-1,5-dihydro-2H-pyrrol-2-one], the IC50 is at most 5 µM.
Under `CC(=O)C1=C(O)C(=O)N(c2ccc(C)cc2F)C1C1CCCCC1` (racemic) [Compound 54, 4-acetyl-5-cyclohexyl-1-(2-fluoro-4-methylphenyl)-3-hydroxy-1,5-dihydro-2H-pyrrol-2-one] stands at most 5 µM; under `CC(=O)C1=C(O)C(=O)N(c2ccc(F)cc2)[C@@H]1C1CCCC1` [Compound 137, (R)-4-acetyl-5-cyclopentyl-1-(4-fluorophenyl)-3-hydroxy-1,5-dihydro-2H-pyrrol-2-one], at most 5 µM.
`CC(=O)C1=C(N)C(=O)N(c2ccc(C)cc2)C1C1CCCCC1` (racemic) [Compound 61, 4-acetyl-3-amino-5-cyclohexyl-1-(4-methylphenyl)-1,5-dihydro-2H-pyrrol-2-one]: the IC50 is at most 5 µM.
Under `CCc1ccc(N2C(=O)C(O)=C(C(C)=O)C2C2CCCCC2)cc1` (racemic) [Compound 77, 4-acetyl-5-cyclohexyl-1-(4-ethylphenyl)-3-hydroxy-1,5-dihydro-2H-pyrrol-2-one] stands at most 5 µM.
On to `CC(=O)C1=C(O)C(=O)N(c2ccc(F)c(C)c2)C1C1CCCCC1` (racemic) [Compound 64, 4-acetyl-5-cyclohexyl-1-(4-fluoro-3-methylphenyl)-3-hydroxy-1,5-dihydro-2H-pyrrol-2-one], for which the IC50 is at most 5 µM.
For the compound `CC(=O)C1=C(O)C(=O)N(c2ccc(Cl)c([N+](=O)[O-])c2)C1C1CCCCC1` (racemic) [Compound 66, 4-acetyl-1-(4-chloro-3-nitrophenyl)-5-cyclohexyl-3-hydroxy-1,5-dihydro-2H-pyrrol-2-one], the IC50 is at most 5 µM.
Under `CC(=O)C1=C(O)C(=O)N(c2ccc(C)c(C)c2)C1CC(C)(C)C` (racemic) [Compound 116, 4-acetyl-1-(3,4-dimethylphenyl)-3-hydroxy-5-neopentyl-1,5-dihydro-2H-pyrrol-2-one] stands at most 5 µM; under `CC(=O)C1=C(O)C(=O)N(c2ccc3c(c2)CCC3)C1C1CCCCC1` (racemic) [Compound 63, 4-acetyl-5-cyclohexyl-1-(2,3-dihydro-1H-inden-5-yl)-3-hydroxy-1,5-dihydro-2H-pyrrol-2-one], at most 5 µM.
With `CC(=O)C1=C(O)C(=O)N(c2c(F)cc(Cl)cc2F)C1C1CCCCC1` (racemic) [Compound 120, 4-acetyl-1-(4-chloro-2,6-difluorophenyl)-5-cyclohexyl-3-hydroxy-1,5-dihydro-2H-pyrrol-2-one] the figure was at most 5 µM.
With `CC(=O)C1=C(O)C(=O)N(c2ccc(Cl)cc2)C1C1CC(C)(C)CC(C)(C)C1` (racemic) [Compound 145, 4-acetyl-1-(4-chlorophenyl)-3-hydroxy-5-(3,3,5,5-tetramethylcyclohexyl)-1,5-dihydro-2H-pyrrol-2-one] the figure was at most 5 µM.
Take `COc1ccc(N2C(=O)C(O)=C(C(C)=O)C2C2CCCCC2)cc1` (racemic) [Compound 14, 4-acetyl-5-cyclohexyl-3-hydroxy-1-(4-methoxyphenyl)-1,5-dihydro-2H-pyrrol-2-one]: the IC50 is at most 5 µM.
Under `CC(=O)C1=C(O)C(=O)N(c2ccc(Br)cc2)C1C1CCCCC1` (racemic) [Compound 17, 4-acetyl-1-(4-bromophenyl)-5-cyclohexyl-3-hydroxy-1,5-dihydro-2H-pyrrol-2-one] stands at most 5 µM; under `CC(=O)C1=C(O)C(=O)N(c2ccc(Cl)cn2)C1C1CCCCC1` (racemic) [Compound 172, 4-acetyl-1-(5-chloro-2-pyridinyl)-5-cyclohexyl-3-hydroxy-1,5-dihydro-2H-pyrrol-2-one], at most 5 µM.
As for `CCC(CC)C1C(C(C)=O)=C(O)C(=O)N1c1ccc(C)cc1` (racemic) [Compound 13, 4-acetyl-5-(1-ethylpropyl)-3-hydroxy-1-(4-methylphenyl)-1,5-dihydro-2H-pyrrol-2-one], the IC50 was at most 5 µM.
Turning to `CC(=O)C1=C(O)C(=O)N(c2ccc(C)cc2)C1C1CC2C=CC1C2` (stereo not drawn) [Compound 79, 4-acetyl-5-bicyclo[2.2.1]hept-5-en-2-yl-3-hydroxy-1-(4-methylphenyl)-1,5-dihydro-2H-pyrrol-2-one], the IC50 was at most 5 µM.
Turning to `CC(=O)C1=C(O)C(=O)N(c2ccc(C)c(Br)c2)C1C1CCCCC1` (racemic) [Compound 73, 4-acetyl-1-(3-bromo-4-methylphenyl)-5-cyclohexyl-3-hydroxy-1,5-dihydro-2H-pyrrol-2-one], the IC50 was at most 5 µM.
With `CC(=O)C1=C(O)C(=O)N(c2cccc(Br)c2)C1C1CCCCC1` (racemic) [Compound 44, 4-acetyl-1-(3-bromophenyl)-5-cyclohexyl-3-hydroxy-1,5-dihydro-2H-pyrrol-2-one] the figure was at most 5 µM; with `CC(=O)C1=C(O)C(=O)N(c2ccc(Br)cc2F)C1C1CCCCC1` (racemic) [Compound 142, 4-acetyl-1-(4-bromo-2-fluorophenyl)-5-cyclohexyl-3-hydroxy-1,5-dihydro-2H-pyrrol-2-one], at most 5 µM; with `CC(=O)C1=C(O)C(=O)N(c2ccc(Cl)cc2)C1C1CCCC1` (racemic) [Compound 118, 4-acetyl-1-(4-chlorophenyl)-5-cyclopentyl-3-hydroxy-1,5-dihydro-2H-pyrrol-2-one], at most 5 µM.
Under `CC(=O)C1=C(O)C(=O)N(c2c(F)cc(Cl)cc2F)[C@H]1C1CCCCC1` (stereo in doubt) [Compound 147, (S)-4-acetyl-1-(4-chloro-2,6-difluorophenyl)-5-cyclohexyl-3-hydroxy-1,5-dihydro-2H-pyrrol-2-one] stands at most 5 µM; under `CC(=O)C1=C(O)C(=O)N(c2ccc(Br)cc2)C1c1ccc(Br)cc1` (racemic) [Compound 9, 4-acetyl-1,5-bis(4-bromophenyl)-3-hydroxy-1,5-dihydro-2H-pyrrol-2-one], at most 5 µM.
Under `CC(=O)C1=C(O)C(=O)N(c2ccc(C)cc2)C1C1CCCC1` (racemic) [Compound 56, 4-acetyl-5-cyclopentyl-3-hydroxy-1-(4-methylphenyl)-1,5-dihydro-2H-pyrrol-2-one] stands at most 5 µM; under `CC(=O)C1=C(O)C(=O)N(c2ccc(C)c(F)c2)C1C1CCCCC1` (racemic) [Compound 47, 4-acetyl-5-cyclohexyl-1-(3-fluoro-4-methylphenyl)-3-hydroxy-1,5-dihydro-2H-pyrrol-2-one], at most 5 µM; under `CC(=O)C1=C(O)C(=O)N(c2ccc(C)cc2)C1C12CC3CC(CC(C3)C1)C2` (racemic) [Compound 58, 4-acetyl-5-(1-adamantyl)-3-hydroxy-1-(4-methylphenyl)-1,5-dihydro-2H-pyrrol-2-one], at most 5 µM.
With `CC(=O)C1=C(O)C(=O)N(c2ccc(C)cc2)C1c1ccc(Br)cc1` (racemic) [Compound 20, 4-acetyl-5-(4-bromophenyl)-3-hydroxy-1-(4-methylphenyl)-1,5-dihydro-2H-pyrrol-2-one], the IC50 was at most 5 µM.
Under `CCc1cc(N2C(=O)C(O)=C(C(C)=O)C2C2CCCCC2)ccc1Cl` (racemic) [Compound 70, 4-acetyl-1-(4-chloro-3-ethylphenyl)-5-cyclohexyl-3-hydroxy-1,5-dihydro-2H-pyrrol-2-one] stands at most 5 µM.
With `CSC1=C(O)C(=O)N(c2ccc(Cl)cc2)C1C1CCCCC1` (racemic) [Compound 128, 1-(4-chlorophenyl)-5-cyclohexyl-3-hydroxy-4-(methylthio)-1,5-dihydro-2H-pyrrol-2-one] the figure was at most 5 µM; with `CC(=O)C1=C(O)C(=O)N(Cc2ccccc2)C1c1ccco1` (racemic) [Compound 8, 4-acetyl-1-benzyl-5-(2-furyl)-3-hydroxy-1,5-dihydro-2H-pyrrol-2-one], at most 5 µM; with `CC(=O)C1=C(O)C(=O)N(c2c(F)cc(Cl)cc2F)[C@@H]1C1CCCCC1` (stereo in doubt) [Compound 148, (R)-4-acetyl-1-(4-chloro-2,6-difluorophenyl)-5-cyclohexyl-3-hydroxy-1,5-dihydro-2H-pyrrol-2-one], at most 5 µM.
With `CC(=O)C1=C(O)C(=O)N(c2ccc(C)c(C)c2)C1C1CCCCC1` (racemic) [Compound 65, 4-acetyl-5-cyclohexyl-1-(3,4-dimethylphenyl)-3-hydroxy-1,5-dihydro-2H-pyrrol-2-one] the figure was at most 5 µM; with `CC(=O)C1=C(O)C(=O)N(c2ccc(C)cc2)C1C1C=CCCC1` (stereo not drawn) [Compound 50, 4-acetyl-5-(cyclohex-2-en-1-yl)-3-hydroxy-1-(4-methylphenyl)-1,5-dihydro-2H-pyrrol-2-one], at most 5 µM.
For the compound `CC(=O)C1=C(O)C(=O)N(c2ccc(C(F)(F)F)cc2)C1C1CCCCC1` (racemic) [Compound 49, 4-acetyl-5-cyclohexyl-3-hydroxy-1-[4-(trifluoromethyl)phenyl]-1,5-dihydro-2H-pyrrol-2-one], the IC50 was at most 5 µM.
